Activity calls are given as the source filed them. The calls are words filed in the database; no cut-off is given here.

Drawing on ChEMBL document CHEMBL5325395, “Design, synthesis and anti-ovarian cancer activities of thieno[2,3-d]pyrimidine based chimeric BRD4 inhibitor/nitric oxide-donator” (Eur J Med Chem, 2023), this text covers Activity, IC50 and inhibition for 13 molecules.

Test [1] concerns SK-OV-3. The test is described as follows: Induction of autophagy in human SK-OV-3 cells assessed as reduction in cell viability at 1 mmol/L incubated for 24 hrs by CCK8 assay. The class given is functional, cell-based. Background: Tetrazolium assays rely on reduction of a dye to a coloured formazan, in cell work by metabolically active cells.
The test system of test [2] is OVCAR-3. Put plainly: Antiproliferative activity against human OVCAR-3 cells assessed as reduction in cell viability incubated for 24 hrs by CCK8 assay. It is filed as functional, cell-based. The following applies: OVCAR-3, 24 h.
For test [3], the system named is SW626. The test is described as follows: Antiproliferative activity against human SW626 cells assessed as reduction in cell viability incubated for 24 hrs by CCK8 assay. The class given is functional, cell-based. Conditions: SW626, 24 h.
Test [4] concerns SK-OV-3. Put plainly: Antiproliferative activity against human SK-OV-3 cells assessed as reduction in cell viability incubated for 24 hrs by CCK8 assay. It is filed as functional, cell-based. The following applies: SK-OV-3, 24 h.
In test [5] the test system is A2780. The test is described as follows: Antiproliferative activity against human A2780 cells assessed as reduction in cell viability incubated for 24 hrs by CCK8 assay. The class given is functional, cell-based. The following applies: A2780, 24 h.
Test [6] has as its system ES-2. Put plainly: Antiproliferative activity against human ES2 cells assessed as reduction in cell viability incubated for 24 hrs by CCK8 assay. The following applies: ES-2, 24 h. The class given is functional, cell-based.
Test [7] in a line: Induction of NO release in phosphate buffer at 1 hr by Griess reagent based spectrophotometer analysis. It is filed as functional. In general terms: The Griess reaction detects nitrite, a stable product of nitric oxide.
A short description of test [8]: Induction of NO release in phosphate buffer at 2 hrs by Griess reagent based spectrophotometer analysis. The class given is functional.
Test [9] in a line: Induction of NO release in phosphate buffer at 3 hrs by Griess reagent based spectrophotometer analysis. The class given is functional.
The target in test [10] is Bromodomain-containing protein 4 (Homo sapiens, UniProt O60885). The test is described as follows: Inhibition of BRD4 (unknown origin).
A short description of test [11]: Induction of NO release in phosphate buffer at 4 hrs by Griess reagent based spectrophotometer analysis. It is filed as functional.
Test [12] is described as follows: Induction of NO release in phosphate buffer at 6 hrs by Griess reagent based spectrophotometer analysis. It is filed as functional.
Test [13] in a line: Induction of NO release in phosphate buffer at 0.5 hrs by Griess reagent based spectrophotometer analysis. The class given is functional.
Test [14] is described as follows: Induction of NO release in phosphate buffer at 24 hrs by Griess reagent based spectrophotometer analysis. It is filed as functional.
The subject of test [15] is SK-OV-3. The test is described as follows: Induction of autophagy in human SK-OV-3 cells assessed as reduction in cell viability at 100 nmol/L incubated for 24 hrs by CCK8 assay. It is filed as functional, cell-based.
The subject of test [16] is Mus musculus. The test is described as follows: In vivo inhibition of BRD4 in BALB/c nude mouse xenografted with human SK-OV-3 cells assessed as reduction in c-Myc expression at 30 mg/kg, ip administered for 19 days by immunohistochemical analysis. Conditions: time 19.0 day. The class given is functional, organism-based. A general note: Xenograft models place foreign cells or tissue in a host animal.

With `Cn1cnc(N)c2ncnc1-2`, in [1], the result was Active.

The term IC50 denotes the concentration that inhibits the measured activity by half. For `CCOC(=O)N1CCN(/[N+]([O-])=N/Oc2ccc([N+](=O)[O-])cc2[N+](=O)[O-])CC1`, the IC50 in [2] was > 20 µM; in [3], > 20 µM; in [4], 18.5 µM; in [5], > 20 µM; in test [6], > 20 µM.

Take `Cc1cc(-c2nc3sc4c(c3c(=O)[nH]2)CCN(C)C4)cc(C)c1OCCCCO[N+](=O)[O-]`: the Activity in [7] was determined as 0.05 µmol/L; in test [8] it was 0.037 µmol/L; in test [9], 0.05 µmol/L; in [11], 0.052 µmol/L; in [12] it was 0.065 µmol/L; in test [13], 0.03 µmol/L. In addition, the Activity in [14] came out at 0.173 µmol/L. For the same molecule, the IC50 in [2] was 15.3 µM; in test [3], 16.6 µM; in test [10] it was 1.89 µM; in test [4] it was 16.9 µM; in test [5] it was 16.9 µM; in [6], 16.3 µM.

Regarding `COc1cc(OC)c2c(=O)[nH]c(-c3cc(C)c(OCCO)c(C)c3)nc2c1` [APABETALONE], the IC50 in test [2] is 16.9 µM; in [3], 8.45 µM; in [4], 7.05 µM; in test [5], 123 µM; in test [6], 8.01 µM.

`Cc1cc(-c2nc3sc4c(c3c(=O)[nH]2)CCN(C)C4)cc(C)c1OCCCCCC(=O)OCc1no[n+]([O-])c1C`: the Activity is 0.03 µmol/L in [7]; 0.033 µmol/L in [8]; 0.036 µmol/L in test [9]; 0.04 µmol/L in test [11]; 0.044 µmol/L in [12]; 0.02 µmol/L in test [13]. In addition, in test [14], the Activity worked out at 0.154 µmol/L. The IC50 in [2] amounted to 6.89 µM; in [3] it was 5.79 µM; in [10], 1.97 µM; in test [4] it was 12 µM; in [5] it was 6.97 µM; in test [6], 4.63 µM.

As to `CO/C1=C\C(C)=C\[C@@H](C)[C@@H](O)[C@@H](C)C/C(C)=C/C=C/[C@H](OC)[C@@H]([C@@H](C)[C@@H](O)[C@H](C)[C@@]2(O)C[C@@H](O)[C@H](C)[C@@H](C(C)C)O2)OC1=O`, in [15], the outcome was inactive.

Consider `Cc1cc(-c2nc3sc4c(c3c(=O)[nH]2)CCN(C)C4)cc(C)c1OCC(=O)OCc1no[n+]([O-])c1C`, for which the Activity in test [7] was 0.04 µmol/L; in test [8], 0.025 µmol/L; in [9], 0.033 µmol/L; in test [11], 0.037 µmol/L; in test [12], 0.042 µmol/L; in [13], 0.028 µmol/L. This molecule showed an Activity in [14] of 0.169 µmol/L. For the same molecule, the IC50 was 3.73 µM in test [2]; 9.85 µM in test [3]; 1.21 µM in test [10]; 1.62 µM in [4]; 5.39 µM in test [5]; 8.86 µM in test [6].

Take `Cc1cc(-c2nc3sc4c(c3c(=O)[nH]2)CCN(C)C4)cc(C)c1OCCCCCCO[N+](=O)[O-]`: the Activity in [7] came to 0.038 µmol/L; in test [8], 0.03 µmol/L; in test [9], 0.03 µmol/L; in test [11] it was 0.036 µmol/L; in test [12], 0.037 µmol/L; in [13], 0.029 µmol/L. In addition, the Activity in test [14] was determined as 0.166 µmol/L. Moreover, the IC50 in [2] came out at 17.9 µM; in test [3], 17 µM; in test [10], 2.25 µM; in test [4] it was 3.87 µM; in test [5], 14.2 µM; in test [6] it was 15.8 µM.

With `Cc1cc(-c2nc3sc4c(c3c(=O)[nH]2)CCN(C)C4)cc(C)c1O`, the inhibition result in test [16] is “Active”.

On to `Cc1cc(-c2nc3sc4c(c3c(=O)[nH]2)CCN(C)C4)cc(C)c1OCCCCCC(=O)OCc1c(-c2ccccc2)no[n+]1[O-]`, for which the Activity in test [7] came out at 0.068 µmol/L; in [8] it was 0.068 µmol/L; in [9] it was 0.056 µmol/L; in test [11], 0.066 µmol/L; in test [12], 0.117 µmol/L; in test [13] it was 0.063 µmol/L. Further, the Activity in test [14] was determined as 0.249 µmol/L. Also, the half-maximal inhibitory concentration (IC50) was determined as 5.42 µM in test [2]; 12.5 µM in test [3]; 1.34 µM in [10]; 1.69 µM in test [4]; 9.73 µM in [5]; 12.8 µM in test [6].

As for `Cc1cc(-c2nc3sc4c(c3c(=O)[nH]2)CCN(C)C4)cc(C)c1OCCCC(=O)OCc1c(-c2ccccc2)no[n+]1[O-]`, the Activity in test [7] is 0.068 µmol/L; in [8], 0.068 µmol/L; in test [9], 0.056 µmol/L; in test [11] it was 0.066 µmol/L; in test [12], 0.117 µmol/L; in [13], 0.063 µmol/L. The Activity in [14] came to 0.249 µmol/L. The IC50 in test [2] stood at 13.8 µM; in [3], 7.65 µM; in test [10], 1.71 µM; in test [4], 3.18 µM; in test [5], 7.31 µM; in [6], 19 µM.

In the case of `Cc1cc(-c2nc3sc4c(c3c(=O)[nH]2)CCN(C)C4)cc(C)c1OCCCC(=O)OCc1no[n+]([O-])c1C`, the Activity in test [7] worked out at 0.029 µmol/L; in test [8] it was 0.03 µmol/L; in [9] it was 0.027 µmol/L; in [11], 0.035 µmol/L; in [12], 0.036 µmol/L; in [13] it was 0.023 µmol/L. The Activity in test [14] stood at 0.149 µmol/L. In addition, the IC50 in test [2] came out at 5.44 µM; in test [3] it was 13.4 µM; in [10], 2.26 µM; in [4] it was 7.93 µM; in [5], 17.3 µM; in [6], 14.4 µM.

For the molecule `Cc1cc(-c2nc3sc4c(c3c(=O)[nH]2)CCN(C)C4)cc(C)c1OCCCCCCOC(=O)c1no[n+]([O-])c1C`, the Activity in test [7] stood at 0.027 µmol/L; in test [8], 0.028 µmol/L; in test [9], 0.026 µmol/L; in test [11], 0.036 µmol/L; in test [12], 0.044 µmol/L; in [13], 0.022 µmol/L. The molecule further showed an Activity in [14] of 0.154 µmol/L. For the same molecule, the IC50 was 7.04 µM in test [2]; 12.1 µM in test [3]; 2.36 µM in test [10]; 6.33 µM in test [4]; 13.1 µM in test [5]; 4.69 µM in test [6].
